Experimental data published in ChEMBL document CHEMBL1153434, “Pyridoimidazolones as novel potent inhibitors of v-Raf murine sarcoma viral oncogene homologue B1 (BRAF)” (J Med Chem, 2009).

Columns and labels:
[1] = target: Serine/threonine-protein kinase B-raf (Homo sapiens, UniProt P15056, V600E)
Description: Inhibition of BRAF V600E mutant

[2] = Growth inhibition of human WM266.4 cells expressing BRAF mutant by SRB assay; format: functional, cell-based; conditions: WM 266-4
[3] = AUC in plasma of BRAF mutant expressing WM266.4 cells xenografted Crl:CD1-Foxn1nu mouse at 2 mg/kg, iv; format: ADME, organism-based; set-up: dose 2 mg/kg, route intravenous
[4] = AUC in tumor of BRAF mutant expressing WM266.4 cells xenografted Crl:CD1-Foxn1nu mouse at 2 mg/kg, iv; format: ADME, organism-based, Neoplasm; set-up: dose 2 mg/kg, route intravenous
[5] = Clearance in plasma of BRAF mutant expressing WM266.4 cells xenografted Crl:CD1-Foxn1nu mouse at 2 mg/kg, iv; format: ADME, organism-based; set-up: dose 2 mg/kg, route intravenous
[6] = Cmax in tumor of BRAF mutant expressing WM266.4 cells xenografted Crl:CD1-Foxn1nu mouse at 2 mg/kg, iv; format: ADME, organism-based, Neoplasm; set-up: dose 2 mg/kg, route intravenous; conditions: read-out: Cmax_tumor
[7] = Clearance in tumor of BRAF mutant expressing WM266.4 cells xenografted Crl:CD1-Foxn1nu mouse at 2 mg/kg, iv; format: ADME, organism-based, Neoplasm; set-up: dose 2 mg/kg, route intravenous; conditions: in vivo
[8] = Half life in tumor of BRAF mutant expressing WM266.4 cells xenografted Crl:CD1-Foxn1nu mouse at 2 mg/kg, iv; format: ADME, organism-based, Neoplasm; set-up: dose 2 mg/kg, route intravenous
[9] = Half life in plasma of BRAF mutant expressing WM266.4 cells xenografted Crl:CD1-Foxn1nu mouse at 2 mg/kg, iv; format: ADME, organism-based; set-up: dose 2 mg/kg, route intravenous
[10] = Cmax in plasma of BRAF mutant expressing WM266.4 cells xenografted Crl:CD1-Foxn1nu mouse at 2 mg/kg, iv; format: ADME, organism-based; set-up: dose 2 mg/kg, route intravenous
[11] = Metabolic stability in mouse liver microsomes assessed as drug metabolism at 10 uM; format: ADME, Microsome; conditions: read-out: Activity
[12] = AUC in BALB/cAnNCrl mouse plasma at 2 mg/kg, iv; format: ADME, organism-based; set-up: dose 2 mg/kg, route intravenous
[13] = Cmax in BALB/cAnNCrl mouse plasma at 2 mg/kg, iv; format: ADME, organism-based; set-up: dose 2 mg/kg, route intravenous
[14] = Half life in BALB/cAnNCrl mouse muscle at 2 mg/kg, iv; format: ADME, organism-based, Muscle tissue; set-up: dose 2 mg/kg, route intravenous
[15] = Cmax in BALB/cAnNCrl mouse muscle at 2 mg/kg, iv; format: ADME, organism-based, Muscle tissue; set-up: dose 2 mg/kg, route intravenous
[16] = AUC in BALB/cAnNCrl mouse muscle at 2 mg/kg, iv; format: ADME, organism-based, Muscle tissue; set-up: dose 2 mg/kg, route intravenous
Muscle tissue = experiment: Clearance in BALB/cAnNCrl mouse muscle at 2 mg/kg, iv; format: ADME, organism-based; set-up: dose 2 mg/kg, route intravenous; conditions: in vivo
[17] = Half life in BALB/cAnNCrl mouse plasma at 2 mg/kg, iv; format: ADME, organism-based; set-up: dose 2 mg/kg, route intravenous
[18] = Clearance in BALB/cAnNCrl mouse plasma at 2 mg/kg, iv; format: ADME, organism-based; set-up: dose 2 mg/kg, route intravenous

Chain of Serine/threonine-protein kinase B-raf (P15056 2-766 V600E limits assumed): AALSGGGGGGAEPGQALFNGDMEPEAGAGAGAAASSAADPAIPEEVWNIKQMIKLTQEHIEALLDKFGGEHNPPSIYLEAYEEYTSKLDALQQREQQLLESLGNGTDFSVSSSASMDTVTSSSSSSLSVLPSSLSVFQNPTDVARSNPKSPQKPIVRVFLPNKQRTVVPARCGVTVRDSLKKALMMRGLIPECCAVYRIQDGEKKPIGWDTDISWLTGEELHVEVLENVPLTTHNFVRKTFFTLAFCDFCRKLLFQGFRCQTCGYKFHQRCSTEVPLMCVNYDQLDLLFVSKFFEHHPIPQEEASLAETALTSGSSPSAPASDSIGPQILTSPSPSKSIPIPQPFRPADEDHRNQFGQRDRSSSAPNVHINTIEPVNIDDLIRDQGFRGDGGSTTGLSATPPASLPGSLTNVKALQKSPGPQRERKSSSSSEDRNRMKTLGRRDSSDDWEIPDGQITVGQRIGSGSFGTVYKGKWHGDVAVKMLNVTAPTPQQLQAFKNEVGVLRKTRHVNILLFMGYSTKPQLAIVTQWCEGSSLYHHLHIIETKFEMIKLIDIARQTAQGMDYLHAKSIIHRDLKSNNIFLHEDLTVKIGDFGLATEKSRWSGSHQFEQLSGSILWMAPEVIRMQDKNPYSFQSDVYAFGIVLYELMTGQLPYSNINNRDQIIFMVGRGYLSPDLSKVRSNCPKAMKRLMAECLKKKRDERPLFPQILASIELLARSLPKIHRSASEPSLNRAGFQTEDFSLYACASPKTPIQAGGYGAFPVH

Row | IC50 [1] | SMILES | IC50 [2] | other results
1 | 12.2 µM | O=c1[nH]c2nccc(Oc3ccc(NS(=O)(=O)c4cccs4)cc3)c2[nH]1 | 15.6 µM | –
2 | > 100 µM | O=c1[nH]c2nccc(Oc3ccc(NS(=O)(=O)c4ccc(F)cc4)cc3)c2[nH]1 | – | –
3 | 14 µM | O=C(Nc1ccc(Oc2ccnc3[nH]c(=O)[nH]c23)cc1)c1cccc(Br)c1 | 18 µM | –
4 | > 100 µM | O=c1[nH]c2nccc(Oc3ccc(NS(=O)(=O)c4ccc(Cl)cc4)cc3)c2[nH]1 | 39 µM | –
5 | 0.085 µM | O=c1[nH]c2nccc(Oc3ccc(NC(=S)Nc4ccc(Cl)c(C(F)(F)F)c4)cc3)c2[nH]1 | 10.7 µM | –
6 | 0.022 µM | Cn1c(=O)[nH]c2nccc(Oc3ccc(NC(=O)Nc4ccc(Cl)c(C(F)(F)F)c4)cc3)c21 | 5.3 µM | AUC [3]: 3.26 µM·h; AUC [4]: 4.5 µM·h; clearance [5]: 0.283 mL/min; Cmax [6]: 1150 nM; CL [7]: 0.006 L/h; half-life [8]: 9.72 h; half-life [9]: 2.58 h; Cmax [10]: 2450 nM; metabolised at 10 µM [11]: 11%
7 | > 100 µM | O=C(Cc1cc(F)cc(F)c1)Nc1ccc(Oc2ccnc3[nH]c(=O)[nH]c23)cc1 | 29 µM | –
8 | 0.045 µM | Cn1c(=O)[nH]c2c(Oc3ccc(NC(=O)Nc4ccc(Cl)c(C(F)(F)F)c4)cc3)ccnc21 | 3.7 µM | AUC [12]: 16.4 µM·h; Cmax [13]: 3230 nM; half-life [14]: 4.35 h; Cmax [15]: 8080 nM; AUC [16]: 9.46 µM·h; CL (Muscle tissue): 0.009 L/h; half-life [17]: 4.72 h; clearance [18]: 0.833 mL/min
9 | 0.046 µM | Cn1c(=O)[nH]c2c(Oc3ccc(NC(=O)Nc4cc(C(F)(F)F)ccc4F)cc3)ccnc21 | 1.94 µM | –
10 | 0.014 µM | O=C(Nc1ccc(Oc2ccnc3[nH]c(=O)[nH]c23)cc1)Nc1cccc(C(F)(F)F)c1 | > 100 µM | –
11 | 2.84 µM | O=C(Nc1ccc(Oc2ccnc3[nH]c(=O)[nH]c23)cc1)Nc1cccc(F)c1 | 13.9 µM | –
12 | 0.027 µM | COc1cc(Cl)c(C(F)(F)F)cc1NC(=O)Nc1ccc(Oc2ccnc3[nH]c(=O)[nH]c23)cc1 | 1.6 µM | metabolised at 10 µM [11]: 8%
13 | 0.023 µM | O=C(Nc1ccc(Oc2ccnc3[nH]c(=O)[nH]c23)cc1)Nc1ccc(Cl)c(C(F)(F)F)c1 | 4.2 µM | AUC [3]: 0.718 µM·h; AUC [4]: 0.468 µM·h; clearance [5]: 1.95 mL/min; Cmax [6]: 207 nM; CL [7]: 0.16 L/h; half-life [8]: 1.24 h; half-life [9]: 0.8 h; Cmax [10]: 1060 nM; metabolised at 10 µM [11]: 0%
14 | 0.06 µM | Cn1c(=O)[nH]c2c(Oc3ccc(NC(=O)Nc4cccc(C(C)(C)C)c4)cc3)ccnc21 | 7 µM | –
15 | 0.052 µM | O=C(Nc1ccc(Oc2ccnc3[nH]c(=O)[nH]c23)cc1)Nc1cc(C(F)(F)F)ccc1F | 3.3 µM | –
16 | – | O=C(Cc1cccc(OC(F)(F)F)c1)Nc1ccc(Oc2ccnc3[nH]c(=O)[nH]c23)cc1 | 23.9 µM | –
17 | > 100 µM | O=c1[nH]c2nccc(Oc3ccc(NS(=O)(=O)c4ccc(C(F)(F)F)cc4)cc3)c2[nH]1 | 41 µM | –
18 | > 100 µM | O=C(Nc1ccc(Oc2ccnc3[nH]c(=O)[nH]c23)cc1)c1cccc(OC(F)(F)F)c1 | > 100 µM | –
19 | > 100 µM | O=c1[nH]c2nccc(Oc3ccc(NS(=O)(=O)c4ccc(Cl)c(C(F)(F)F)c4)cc3)c2[nH]1 | 40.3 µM | –
20 | 16.7 µM | O=C(Cc1ccccc1)Nc1ccc(Oc2ccnc3[nH]c(=O)[nH]c23)cc1 | 73 µM | –
21 | 17.2 µM | O=C(Nc1ccc(Oc2ccnc3[nH]c(=O)[nH]c23)cc1)c1cccc(C(F)(F)F)c1 | 22 µM | –
22 | 0.6 µM | O=C(Nc1ccc(Oc2ccnc3[nH]c(=O)[nH]c23)cc1)Nc1cc(F)cc(N2CCOCC2)c1 | 41 µM | –

Row | IC50 [1] | SMILES | IC50 [2] | other results
23 | 0.85 µM | O=c1[nH]c2nccc(Oc3ccc(NS(=O)(=O)c4ccccc4)cc3)c2[nH]1 | 62.7 µM | metabolised at 10 µM [11]: 5%
24 | > 100 µM | O=C(Nc1ccc(Oc2ccnc3[nH]c(=O)[nH]c23)cc1)c1cc(F)cc(N2CCOCC2)c1 | 44 µM | –
25 | 32.5 µM | O=c1[nH]c2nccc(Oc3ccc(NS(=O)(=O)c4ccccc4F)cc3)c2[nH]1 | 62 µM | –
26 | – | O=C(Cc1cccc(C(F)(F)F)c1)Nc1ccc(Oc2ccnc3[nH]c(=O)[nH]c23)cc1 | 5 µM | –
27 | > 100 µM | O=C(Nc1ccc(Oc2ccnc3[nH]c(=O)[nH]c23)cc1)Nc1ccccc1C(F)(F)F | > 100 µM | –
28 | 0.86 µM | O=C(Nc1ccc(Oc2ccnc3[nH]c(=O)[nH]c23)cc1)Nc1cc(C(F)(F)F)ccc1N1CCOCC1 | 5.2 µM | –
29 | 0.305 µM | CCn1c(=O)n(CC)c2c(Oc3ccc(NC(=O)Nc4ccc(Cl)c(C(F)(F)F)c4)cc3)ccnc21 | 22 µM | –
30 | 15.9 µM | O=C(Nc1ccc(Oc2ccnc3[nH]c(=O)[nH]c23)cc1)c1ccc(Cl)c(C(F)(F)F)c1 | 8.1 µM | –
31 | – | COc1cccc(CC(=O)Nc2ccc(Oc3ccnc4[nH]c(=O)[nH]c34)cc2)c1 | 40 µM | –
32 | 0.012 µM | COc1ccc(C(F)(F)F)cc1NC(=O)Nc1ccc(Oc2ccnc3[nH]c(=O)[nH]c23)cc1 | 4.2 µM | –
33 | > 100 µM | O=C(Nc1ccccc1)Nc1ccc(Oc2ccnc3[nH]c(=O)[nH]c23)cc1 | > 100 µM | –
34 | > 100 µM | O=C(Nc1ccc(Oc2ccnc3[nH]c(=O)[nH]c23)cc1)Nc1ccc(C(F)(F)F)cc1 | > 100 µM | –
35 | 0.04 µM | O=C(Nc1ccc(Sc2ccnc3[nH]c(=O)[nH]c23)cc1)Nc1ccc(Cl)c(C(F)(F)F)c1 | 2.1 µM | –
36 | 0.163 µM | Cn1c(=O)[nH]c2nccc(Oc3ccc(NC(=O)Nc4cccc(C(C)(C)C)c4)cc3)c21 | 2.82 µM | –
37 | 0.021 µM | O=C(Nc1ccc(Oc2ccnc3[nH]c(=O)[nH]c23)cc1)Nc1cccc(OC(F)(F)F)c1 | > 100 µM | –
38 | 0.028 µM | O=C(Nc1ccc(Sc2ccnc3[nH]c(=O)[nH]c23)cc1)Nc1cccc(C(F)(F)F)c1 | 1.42 µM | –
39 | 0.1 µM | O=C(Nc1ccc(Oc2ccnc3[nH]c(=O)[nH]c23)cc1)Nc1cc(Cl)cc(C(F)(F)F)c1 | 12.8 µM | –
40 | – | CNC(=O)c1cc(Oc2ccc(NC(=O)Nc3ccc(Cl)c(C(F)(F)F)c3)cc2)ccn1 [SORAFENIB] | 5 µM | –
41 | > 100 µM | O=C(Nc1ccc(Cl)cc1)Nc1ccc(Oc2ccnc3[nH]c(=O)[nH]c23)cc1 | > 100 µM | –
42 | > 100 µM | O=C(Nc1ccc(Oc2ccnc3[nH]c(=O)[nH]c23)cc1)c1ccccc1 | > 100 µM | –
43 | 0.029 µM | O=C(Nc1ccc(Sc2ccnc3[nH]c(=O)[nH]c23)cc1)Nc1cc(C(F)(F)F)ccc1F | 1.28 µM | –
44 | 0.061 µM | Cn1c(=O)n(C)c2c(Oc3ccc(NC(=O)Nc4ccc(Cl)c(C(F)(F)F)c4)cc3)ccnc21 | 4.8 µM | –
